According to publication PMC12655252, “Synthesis of 1H-Pyrrolo[3,2-g]isoquinoline Derivatives as Ligands Targeting Haspin Kinase” (Molecules, 2025):

Tests used:
[1] = target: T1, HsGSK3β (Homo sapiens, UniProt P49841); assay: ADP-Glo in vitro kinase inhibition assay, GSK3β; assay type: biochemical; conditions: 10 μM ATP, read-out: GSK3 % residual activity; for remaining activity at 1 µM: 1 μM compound; for remaining activity at 10 µM: 10 μM compound
T1 construct: made in house; host or cells: Sf9 insect cells (baculovirus)
Description: (§1) We previouly reported that substitution at the 3-position with halogen atoms or pyridinyl or formyl groups was compatible with high potency toward Haspin kinase. To check if the current structural changes were in line with potent Haspin inhibition and high selectivity, enabling consideration of these compounds as possible targeting ligands for the PROTAC approach, compounds 2, 3, 8–11, and 15–17 were evaluated toward a panel of eight protein kinases, including Haspin, as well as other kinases known to be frequently cross-inhibited (CLK1, DYRK1A, CDK9/Cyclin T, GSK-3β, CK1ε, CDK5/p25, and Pim1) (Table 1). The percentage of residual kinase activity was evaluated at 10 μM and 1 μM compound concentrations. […].
(§2) Kinase inhibition was tested in 384-well plates using the ADP-GloTM assay kit (Promega, Madison, WI, USA) according to the procedure recommended by the manufacturer. Reactions were set up in a final volume of 6 μL in an appropriate kinase buffer (10 mM MgCl2, 1 mM EGTA, 1 mM DTT, 25 mM Tris-HCl pH 7.5, 50 μg/mL heparin) with either protein or peptide as the substrate in the presence of 10 μM ATP. To stop the kinase reaction, 6 μL of ADP-GloTM Kinase Reagent was added after 30 min at 30 °C. Then, after 50 min of incubation at room temperature (RT), 12 μL of Kinase Detection Reagent was added. The transmitted signal was measured after 1 h at RT using the Envision (Perkin Elmer, Waltham, MA, USA) microplate luminometer and expressed in relative light units (RLU). In order to determine the half-maximal inhibitory concentration (IC50), all assays were performed in duplicate in the absence or presence of increasing doses of the tested compounds. GraphPad Prism10 software (GraphPad Software, San Diego, CA, USA) was used to fit dose–response curves and to determine the IC50 values. Kinase activities are given as percentages of maximal activity, i.e., measured in the absence of inhibitor. Peptide substrates were obtained from Proteogenix (Schiltigheim, France).
(§3) The following protein kinases were analyzed in this study: CDK5/p25 (human, vector pGEX-2T, expressed in bacteria; kindly provided by Dr. J. H. Wang) was assayed with 0.8 μg/μL of histone H1 as substrate; HsCDK9/CyclinT (NP_001252/KAI4065659, cloned in pTEFb vector, expressed by baculovirus in Sf9 insect cells) were assayed with 0.27 μg/μL of the following peptide: […], as substrate; HsCK1ε (NP_001885, cloned in pFAST-BAC vector, expressed in Sf9 insect cells) was assayed with 0.022 μg/μL of the following peptide: […]pAYSITA (“Sp” stands for phosphorylated serine) as CK1-specific substrate; HsGSK3β (AAH12760, cloned in pFAST-BAC, expressed by baculovirus in Sf9 insect cells) were assayed with 0.010 μg/μL of GS-1 peptide, a GSK-3-selective substrate ([…]pEDEEE); HsHaspin-kd (NP_114171, kinase domain, amino acids 470–798 cloned in pGEX-6P-3, expressed in bacteria) was assayed with 0.007 μg/μL of histone H3 (1–21) peptide ([…]) as substrate; Pim-1 (KAI4018123, expressed in bacteria) was assayed with 0.8 μg/μL of histone H1 as substrate; HsCLK1 (NP_004062, cloned in pFAST-BAC, expressed in Sf9 insect cells) was assayed with 0.027 μg/μL of the peptide: […]; RnDYRK1A-kd (Rattus norvegicus, amino acids 1–499, pGEX-2TK, expressed in bacteria, gift from Dr. W. Becker, Aachen, Germany) was tested in the presence of 0.033 μg/μL of the peptide: […].

[2] = target: T2, CDK5/p25 (Homo sapiens, UniProt Q00535); assay: ADP-Glo in vitro kinase inhibition assay, CDK5/p25; assay type: biochemical; conditions: 10 μM ATP, read-out: CDK5 % residual activity; for remaining activity at 1 µM: 1 μM compound; for remaining activity at 10 µM: 10 μM compound
T2 construct: made in house; host or cells: bacteria
Description: as §1, §2, §3

[3] = tested on: endogenous Haspin kinase (phosphorylation of Histone H3 on Thr3) in U2OS cells; assay: H3T3ph immunofluorescence assay in U2OS cells (cellular endogenous Haspin activity); assay type: cell-based; conditions: 2.5 μM compound, 16 h, early mitotic cells; for inhibition at 2.5 µM: Homo sapiens, read-out: Inhibition of endogenous Haspin activity (H3T3 phosphorylation) compared to DMSO control
Description: In order to assess the ability of our most interesting compounds to inhibit cellular endogenous Haspin kinase, we evaluated their effects on the phosphorylation of Histone H3 on Thr3, a bona fide Haspin substrate (Figure 4). We treated osteosarcoma U2OS cells with 2.5 μM of selected compounds for 16 h before quantifying H3T3 phosphorylation by immunofluorescence on early mitotic cells (Figure 4A,B). […] This discrepency could be explained by the inability of this compound to cross the plasma membrane or by reduced stability in a cellular environment.
Ethical approval for this study was obtained (9 July 2025) from DGRI-LabOGM (APPROVAL NUMBER: L1-2373). U2OS cells (purchased from ATCC, Manassas, VA, USA, reference HTB-96) were grown in DMEM medium (Dulbecco’s Modified Eagle Medium, High glucose; GlutaMAX, Life Technologies, Carlsbad, CA, USA) supplemented with 10% fetal bovine serum (Gibco, Grand Island, NY, USA) in a 5% CO2 humidified atmosphere. Cells grown on coverslips were treated for 16 h with each compound or 0.025% DMSO, then fixed with 4% paraformaldehyde in PBS, permeabilized by 0.15% Triton-X100 for 2 min, and blocked for 12 min in 4% BSA in PBS. Immunofluorescence assay was performed using standard protocols with a rabbit anti-phospho-Thr3 Histone H3 and a mouse anti-a-Tubulin (B-5-1-2) obtained from Merck Millipore, Burlington, MA, USA (1/2000 dilution). Coverslips were mounted with Vectashield containing DAPI (Vector Laboratories, Newark, CA, USA). Images were acquired with a Coolsnap HQ2 CCD camera (Photometrics, Tucson, AZ, USA) on a Zeiss Axio microscope (Carl Zeiss, Oberkochen, Germany) using a 63x NA 1.46 objective. Image acquisition and processing were performed using Zen Blue (Carl Zeiss). The H3T3ph signal on chromosomes was normalized against the DAPI signal and analyzed using ImageJ software (NIH, Version 1.54p). Graphs were produced and statistical analysis was performed using GraphPad Prism 10. p-values were determined by t-test; n.s., not significant; **** p ≤ 0.0001.
Figure 4 Evaluation of selected compounds on cellular endogenous Haspin activity. (A) U2OS cells were treated with 2.5 μM of each compound or 1 μM of CHR6494 (CHR) or DMSO for 16 h. Immunofluorescence assay was performed with anti-pH3T3 antibody (green) and anti-a-Tubulin (red); DNA was labelled with DAPI (blue). Representative images of early mitotic cells for each condition are presented. Scale bar: 5 μm. (B) Scatter plot representing H3T3ph/DAPI signal ratio indicative of Haspin activity; n > 17 mitotic cells per condition. n.s., not significant; **** p ≤ 0.0001.

T1 sequence (P49841 whole entry): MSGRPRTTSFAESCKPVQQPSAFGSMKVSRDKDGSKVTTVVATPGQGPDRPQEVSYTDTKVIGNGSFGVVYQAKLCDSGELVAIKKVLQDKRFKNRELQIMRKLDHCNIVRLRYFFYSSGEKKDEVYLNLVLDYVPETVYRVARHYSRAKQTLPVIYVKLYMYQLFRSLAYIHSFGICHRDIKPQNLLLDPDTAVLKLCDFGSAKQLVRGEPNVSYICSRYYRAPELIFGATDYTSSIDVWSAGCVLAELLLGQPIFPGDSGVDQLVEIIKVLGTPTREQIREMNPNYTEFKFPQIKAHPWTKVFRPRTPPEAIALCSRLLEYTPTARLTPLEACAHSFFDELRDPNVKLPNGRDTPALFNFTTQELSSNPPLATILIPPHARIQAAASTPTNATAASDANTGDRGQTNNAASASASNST
T2 sequence (Q00535 whole entry): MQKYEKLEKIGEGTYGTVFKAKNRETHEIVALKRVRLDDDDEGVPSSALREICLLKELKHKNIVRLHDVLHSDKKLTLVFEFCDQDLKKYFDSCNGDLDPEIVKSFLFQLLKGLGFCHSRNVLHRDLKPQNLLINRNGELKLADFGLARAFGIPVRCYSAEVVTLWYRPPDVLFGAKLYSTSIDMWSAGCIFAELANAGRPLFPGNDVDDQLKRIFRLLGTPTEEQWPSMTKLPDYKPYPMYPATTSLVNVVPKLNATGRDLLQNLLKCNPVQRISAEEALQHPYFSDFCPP
T2 sequence (Q15078 99-307 partner limits assumed): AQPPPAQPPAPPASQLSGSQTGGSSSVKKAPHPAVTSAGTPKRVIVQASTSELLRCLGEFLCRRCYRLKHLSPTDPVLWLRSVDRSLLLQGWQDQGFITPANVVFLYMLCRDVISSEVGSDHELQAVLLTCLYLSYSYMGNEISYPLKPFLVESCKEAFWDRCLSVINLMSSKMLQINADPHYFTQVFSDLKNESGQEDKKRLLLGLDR

| Compound | remaining activity at 1 µM [1] | remaining activity at 10 µM [1] | remaining activity at 1 µM [2] | remaining activity at 10 µM [2] | Inhibition of endogenous Haspin activity (H3T3 phosphorylation) compared to DMSO control [3] | inhibition at 2.5 µM [3] |
| --- | --- | --- | --- | --- | --- | --- |
| c1cc2cc3c(-c4cc[nH]n4)c[nH]c3cc2cn1 [Compound 15, 3-(1H-Pyrazol-3-yl)-1H-pyrrolo[3,2-g]isoquinoline] | 100% | 86% | 98% | 76% |  | 66% |
| Nc1ccc(-c2c[nH]c3cc4cnccc4cc23)cn1 [Compound 3, 5-(1H-Pyrrolo[3,2-g]isoquinolin-3-yl)pyridin-2-amine] | 80% | 58% | 100% | 100% |  | ~43% |
| c1c[nH]c(-c2c[nH]c3cc4cnccc4cc23)c1 [Compound 17, 3-(1H-Pyrrol-2-yl)-1H-pyrrolo[3,2-g]isoquinoline] | 71% | 65% | 75% | 81% |  | ~43% |

Second part, led by results:

| remaining activity at 1 µM [1] | remaining activity at 10 µM [1] | remaining activity at 1 µM [2] | remaining activity at 10 µM [2] | Compound | Inhibition of endogenous Haspin activity (H3T3 phosphorylation) compared to DMSO control [3] | inhibition at 2.5 µM [3] |
| --- | --- | --- | --- | --- | --- | --- |
| 78% | 71% | 72% | 100% | COC(=O)/C=C/c1c[nH]c2cc3cnccc3cc12 [Compound 8, Methyl (E)-3-(1H-Pyrrolo[3,2-g]isoquinolin-3-yl)prop-2-enoate] | did not show any significant inhibitory potential |  |
| 94% | 17% | 91% | 10% | c1cc2cc3c(-c4cn[nH]c4)c[nH]c3cc2cn1 [Compound 16, 3-(1H-Pyrazol-4-yl)-1H-pyrrolo[3,2-g]isoquinoline] |  | 77% |
